Data taken from US20230079045A1 (priority 2019, published 2023).

System: IFV A/PR/8/34
Test: cytopathic effect (CPE) antiviral test in MDCK cells, IFV A/PR/8/34
Assay type: cell-based, influenza virus
Conditions: unidentified influenza virus, PR/8, MDCK, 120 h, read-out: EC50(IFV A/PR/8/34)

Structure (SMILES) | EC50 [nM]
O=C(Nc1ccc2nc(-c3ccnc(C(=O)N4CCN(C(c5ccccc5)c5nnn(C(F)F)n5)CC4)c3)oc2c1)[C@@H]1C[C@@H]1F (mixture of isomers) [Compound 93, (1S,2S)—N-(2-(2-(4-((R/S)-(2-(difluoromethyl)-2H-tetrazol-5-yl)(phenyl)methyl)piperazine-1-carbonyl)pyridin-4-yl)benzo[d]oxazol-6-yl)-2-fluorocyclopropane-1-carboxamide] | 16
O=C(Nc1ccc2oc(-c3ccnc(C(=O)N4CCN(C(c5ccsc5)c5nnn(C(F)F)n5)CC4)c3)nc2c1)[C@@H]1C[C@@H]1F (mixture of isomers) [Compound 122, (1S,2S)—N-(2-(2-(4-((R/S)-(2-(difluoromethyl)-2H-tetrazol-5-yl)(thiophen-3-yl)methyl)piperazine-1-carbonyl)pyridin-4-yl)benzo[d]oxazol-5-yl)-2-fluorocyclopropane-1-carboxamide] | 19
O=C(Nc1ccc2oc(-c3ccnc(C(=O)N4CCC(C(c5ccccc5)n5nnc(C(F)F)n5)CC4)c3)nc2c1)[C@@H]1C[C@@H]1F (mixture of isomers) [Compound 138, (1S,2S)—N-(2-(2-(4-((R/S)-(5-(difluoromethyl)-2H-tetrazol-2-yl)(phenyl)methyl)piperidine-1-carbonyl)pyridin-4-yl)benzo[d]oxazol-5-yl)-2-fluorocyclopropanecarboxamide] | 4
O=C(Nc1ccc2oc(-c3ccnc(C(=O)N4CCC(C(c5ccccc5)c5nnn(C(F)F)n5)CC4)c3)nc2c1)[C@@H]1C[C@@H]1F (mixture of isomers) [Compound 168, (1S,2S)—N-(2-(2-(4-((R/S)-(2-(difluoromethyl)-2H-tetrazol-5-yl)(phenyl)methyl)piperidine-1-carbonyl)pyridin-4-yl)benzo[d]oxazol-5-yl)-2-fluorocyclopropane-1-carboxamide] | 2
Cc1nnn(C(c2ccccc2)C2CCN(C(=O)c3cc(-c4nc5cc(NC(=O)[C@H]6C[C@@H]6F)ccc5o4)ccn3)CC2)n1 (mixture of isomers) [Compound 184, (1R,2S)-2-fluoro-N-(2-(2-(4-((R/S)-(5-methyl-2H-tetrazol-2-yl)(phenyl)methyl)piperidine-1-carbonyl)pyridin-4-yl)benzo[d]oxazol-5-yl)cyclopropanecarboxamide] | 14
Cc1nnn(C(c2ccccc2)C2CCN(C(=O)c3cc(-c4nc5cc(NC(=O)[C@H]6C[C@H]6F)ccc5o4)ccn3)CC2)n1 (mixture of isomers) [Compound 185, (1R,2R)-2-fluoro-N-(2-(2-(4-((R/S)-(5-methyl-2H-tetrazol-2-yl)(phenyl)methyl)piperidine-1-carbonyl)pyridin-4-yl)benzo[d]oxazol-5-yl)cyclopropanecarboxamide] | 24
Cc1nnn(C(c2ccccc2)C2CCN(C(=O)c3cc(-c4nc5cc(NC(=O)[C@@H]6C[C@H]6F)ccc5o4)ccn3)CC2)n1 (mixture of isomers) [Compound 190, (1S,2R)-2-fluoro-N-(2-(2-(4-((R/S)-(5-methyl-2H-tetrazol-2-yl)(phenyl)methyl)piperidine-1-carbonyl)pyridin-4-yl)benzo[d]oxazol-5-yl)cyclopropane-1-carboxamide] | 11
O=C(Nc1ccc2oc(-c3ccnc(C(=O)N4CCC(C(c5ccccc5)n5nnc(CO)n5)CC4)c3)nc2c1)[C@@H]1C[C@@H]1F (mixture of isomers) [Compound 197, (1S,2S)-2-fluoro-N-(2-(2-(4-((R/S)-(5-(hydroxymethyl)-2H-tetrazol-2-yl)(phenyl)methyl)piperidine-1-carbonyl)pyridin-4-yl)benzo[d]oxazol-5-yl)cyclopropane-1-carboxamide] | 0.9
CC(=O)OCc1nnn(C(c2ccccc2)C2CCN(C(=O)c3cc(-c4nc5cc(NC(=O)[C@@H]6C[C@@H]6F)ccc5o4)ccn3)CC2)n1 (mixture of isomers) [Compound 199, (2-((R/S)-(1-(4-(5-((1S,2S)-2-fluorocyclopropane-1-carboxamido)benzo[d]oxazol-2-yl)picolinoyl)piperidin-4-yl)(phenyl)methyl)-2H-tetrazol-5-yl)methyl acetate] | 1.8
COCc1nnn(C(c2ccccc2)C2CCN(C(=O)c3cc(-c4nc5cc(NC(=O)[C@@H]6C[C@@H]6F)ccc5o4)ccn3)CC2)n1 (mixture of isomers) [Compound 200, (1S,2S)-2-fluoro-N-(2-(2-(4-((R/S)-(5-(methoxymethyl)-2H-tetrazol-2-yl)(phenyl)methyl)piperidine-1-carbonyl)pyridin-4-yl)benzo[d]oxazol-5-yl)cyclopropane-1-carboxamide] | 2.1
Cc1nnn(C(c2ccccc2)C2CC3CCC(C2)N3C(=O)c2cc(-c3nc4cc(NC(=O)[C@@H]5C[C@@H]5F)ccc4o3)ccn2)n1 (mixture of isomers) [Compound 208, (1S,2S)-2-fluoro-N-(2-(2-(3-((R/S)-(5-methyl-2H-tetrazol-2-yl)(phenyl)methyl)-8-azabicyclo[3.2.1]octane-8-carbonyl)pyridin-4-yl)benzo[d]oxazol-5-yl)cyclopropanecarboxamide] | 6.9
NCc1nnn(C(c2ccccc2)C2CCN(C(=O)c3cc(-c4nc5cc(NC(=O)[C@@H]6C[C@@H]6F)ccc5o4)ccn3)CC2)n1 (mixture of isomers) [Compound 210, (1S,2S)—N-(2-(2-(4-((R/S)-(5-(aminomethyl)-2H-tetrazol-2-yl)(phenyl)methyl)piperidine-1-carbonyl)pyridin-4-yl)benzo[d]oxazol-5-yl)-2-fluorocyclopropane-1-carboxamide] | 0.8
CNCc1nnn(C(c2ccccc2)C2CCN(C(=O)c3cc(-c4nc5cc(NC(=O)[C@@H]6C[C@@H]6F)ccc5o4)ccn3)CC2)n1 (mixture of isomers) [Compound 211, (1S,2S)-2-fluoro-N-(2-(2-(4-((R/S)-(5-((methylamino)methyl)-2H-tetrazol-2-yl)(phenyl)methyl)piperidine-1-carbonyl)pyridin-4-yl)benzo[d]oxazol-5-yl)cyclopropane-1-carboxamide] | 0.3
O=C(Nc1ccc2oc(-c3ccnc(C(=O)N4CCN(C(c5ccccc5)c5nnn(CCO)n5)CC4)c3)nc2c1)[C@@H]1C[C@@H]1F (mixture of isomers) [Compound 212, (1S,2S)-2-fluoro-N-(2-(2-(4-((R/S)-(2-(2-hydroxyethyl)-2H-tetrazol-5-yl)(phenyl)methyl)piperazine-1-carbonyl)pyridin-4-yl)benzo[d]oxazol-5-yl)cyclopropane-1-carboxamide] | 2.2
COCn1nnc(C(c2ccccc2)N2CCN(C(=O)c3cc(-c4nc5cc(NC(=O)[C@@H]6C[C@@H]6F)ccc5o4)ccn3)CC2)n1 (mixture of isomers) [Compound 214, (1S,2S)-2-fluoro-N-(2-(2-(4-((R/S)(2-(methoxymethyl)-2H-tetrazol-5-yl)(phenyl)methyl)piperazine-1-carbonyl)pyridin-4-yl)benzo[d]oxazol-5-yl)cyclopropane-1-carboxamide] | 1.9
Cc1nnn(C(c2ccccc2)C2CCN(C(=O)c3nccc(-c4nc5cc(NC(=O)[C@@H]6C[C@@H]6F)ccc5o4)c3F)CC2)n1 (mixture of isomers) [Compound 219, (1S,2S)-2-fluoro-N-(2-(3-fluoro-2-(4-((R/S)-(5-methyl-2H-tetrazol-2-yl)(phenyl)methyl)piperidine-1-carbonyl)pyridin-4-yl)benzo[d]oxazol-5-yl)cyclopropanecarboxamide] | 1.9
O=C(c1cc(-c2nc3cc(-c4ccns4)ccc3o2)ccn1)N1CCN(C(c2ccccc2)c2nnn(C(F)F)n2)CC1 (racemic) [Compound 115, (R/S)-(4-((2-(difluoromethyl)-2H-tetrazol-5-yl)(phenyl)methyl)piperazin-1-yl)(4-(5-(isothiazol-5-yl)benzo[d]oxazol-2-yl)pyridin-2-yl)methanone] | 64
O=C(c1cc(-c2nc3ccc(NC(=O)C4(F)CC4)cc3o2)ccn1)N1CCN(C(c2ccccc2)c2nnn(C(F)F)n2)CC1 (racemic) [Compound 125, (R/S)—N-(2-(2-(4-((2-(difluoromethyl)-2H-tetrazol-5-yl)(phenyl)methyl)piperazine-1-carbonyl)pyridin-4-yl)benzo[d]oxazol-6-yl)-1-fluorocyclopropane-1-carboxamide] | 12
Cn1cncc1-c1ccc2oc(-c3ccnc(C(=O)N4CCN(C(c5ccccc5)c5nnn(C(F)F)n5)CC4)c3)nc2c1 (racemic) [Compound 126, (R/S)-(4-((2-(difluoromethyl)-2H-tetrazol-5-yl)(phenyl)methyl)piperazin-1-yl)(4-(5-(1-methyl-1H-imidazol-5-yl)benzo[d]oxazol-2-yl)pyridin-2-yl)methanone] | 1
CCn1cc(-c2ccc3oc(-c4ccnc(C(=O)N5CCN(C(c6ccccc6)c6nnn(C(F)F)n6)CC5)c4)nc3c2)cn1 (racemic) [Compound 127, (R/S)-(4-((2-(difluoromethyl)-2H-tetrazol-5-yl)(phenyl)methyl)piperazin-1-yl)(4-(5-(1-ethyl-1H-pyrazol-4-yl)benzo[d]oxazol-2-yl)pyridin-2-yl)methanone] | 4
O=C(c1cc(-c2nc3cc(NC(=O)C4(F)CC4)ccc3o2)ccn1)N1CCN(C(c2ccccc2)c2nnn(C(F)F)n2)CC1 (racemic) [Compound 129] | 12
Cn1cc(-c2ccc3oc(-c4ccnc(C(=O)N5CCN(C(c6ccccc6)c6nnn(C(F)F)n6)CC5)c4)nc3c2)nn1 (racemic) [Compound 130, (R/S)-(4-((2-(difluoromethyl)-2H-tetrazol-5-yl)(phenyl)methyl)piperazin-1-yl)(4-(5-(1-methyl-1H-1,2,3-triazol-4-yl)benzo[d]oxazol-2-yl)pyridin-2-yl)methanone] | 29
Cn1nncc1-c1ccc2oc(-c3ccnc(C(=O)N4CCN(C(c5ccccc5)c5nnn(C(F)F)n5)CC4)c3)nc2c1 (racemic) [Compound 131, (R/S)-(4-((2-(difluoromethyl)-2H-tetrazol-5-yl)(phenyl)methyl)piperazin-1-yl)(4-(5-(1-methyl-1H-1,2,3-triazol-5-yl)benzo[d]oxazol-2-yl)pyridin-2-yl)methanone] | 12
